Data taken from US20260373266A1, “PROTEIN DEGRADERS AND USES THEREOF” (KYMERA THERAPEUTICS, INC., priority 2022, published 2026).

The compounds below were run against T1, DCAF1 WD40 domain (residues 1077-1390) (Homo sapiens, UniProt Q9Y4B6) (assay: DCAF1 binding assay by SPR (Biacore 8K+), DCAF1-3 KD). Conditions: 25 °C, read-out: DCAF1-3 SPR (KD).
T1 construct: DCAF1 WD40 domain (residues 1077-1390)
T1 sequence (Q9Y4B6 1077-1390): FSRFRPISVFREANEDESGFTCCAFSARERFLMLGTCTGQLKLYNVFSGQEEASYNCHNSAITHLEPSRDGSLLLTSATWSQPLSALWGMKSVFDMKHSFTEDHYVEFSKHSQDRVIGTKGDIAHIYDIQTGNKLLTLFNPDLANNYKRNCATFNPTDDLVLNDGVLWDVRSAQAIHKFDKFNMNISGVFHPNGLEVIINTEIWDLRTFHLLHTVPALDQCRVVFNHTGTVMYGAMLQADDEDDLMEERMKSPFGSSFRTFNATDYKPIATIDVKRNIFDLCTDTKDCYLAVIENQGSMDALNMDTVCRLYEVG

Row | Compound | Kd [µM]
1 | Fc1cccc(N2C3CC[C@H]2CC[C@H]3Nc2nccc(N3CCOCC3)n2)c1 (stereo in doubt) [I-60] | 100 to 200
2 | Fc1cccc(N2C3CC[C@H]2CC[C@H]3Nc2cc(N3CCOCC3)ccn2)c1 (stereo in doubt) [I-80] | > 200
3 | Fc1cccc(N2[C@H]3CCC[C@@H]2[C@H](Nc2nccc(N4CCOCC4)n2)CC3)c1 (stereo in doubt) [I-322] | > 200
4 | Fc1cccc(N2C[C@H](Nc3cc(N4CCOCC4)ncn3)C3CCC[C@H]2C3)c1 (stereo in doubt) [I-384] | > 200
5 | Fc1cccc(N2CCC[C@@H](Nc3cc(N4CCOCC4)ncn3)C2)c1 [I-1] | 100 to 200
6 | c1ccc(N2CCC[C@@H](Nc3cc(N4CCOCC4)ncn3)C2)cc1 [I-2] | 100 to 200
7 | Fc1ccccc1N1CCC[C@@H](Nc2cc(N3CCOCC3)ncn2)C1 [I-3] | > 200
8 | Cc1ccccc1N1CCC[C@@H](Nc2cc(N3CCOCC3)ncn2)C1 [I-4] | > 200
9 | Cc1cccc(N2CCC[C@@H](Nc3cc(N4CCOCC4)ncn3)C2)c1 [I-5] | > 200
10 | c1cc(N2CCC[C@@H](Nc3cc(N4CCOCC4)ncn3)C2)ccn1 [I-6] | > 200
11 | Fc1ccc(N2CCC[C@@H](Nc3cc(N4CCOCC4)ncn3)C2)cc1 [I-7] | 100 to 200
12 | Cc1ccc(N2CCC[C@@H](Nc3cc(N4CCOCC4)ncn3)C2)cc1 [I-8] | 100 to 200
13 | COc1cccc(N2CCC[C@@H](Nc3cc(N4CCOCC4)ncn3)C2)c1 [I-9] | 100 to 200
14 | COc1ccc(N2CCC[C@@H](Nc3cc(N4CCOCC4)ncn3)C2)cc1 [I-10] | > 200
15 | c1ccc(N2CCC[C@@H](Nc3cc(N4CCOCC4)ncn3)C2)nc1 [I-11] | > 200
16 | c1cncc(N2CCC[C@@H](Nc3cc(N4CCOCC4)ncn3)C2)c1 [I-12] | > 200
17 | Oc1cccc(N2CCC[C@@H](Nc3cc(N4CCOCC4)ncn3)C2)c1 [I-13] | > 200
18 | Oc1ccc(N2CCC[C@@H](Nc3cc(N4CCOCC4)ncn3)C2)cc1 [I-14] | 100 to 200
19 | COc1ccccc1N1CCC[C@@H](Nc2cc(N3CCOCC3)ncn2)C1 [I-15] | > 200
20 | Oc1ccccc1N1CCC[C@@H](Nc2cc(N3CCOCC3)ncn2)C1 [I-16] | > 200
21 | Fc1cccc(N2CCC[C@@H](Nc3cccc(N4CCOCC4)n3)C2)c1 [I-17] | 100 to 200
22 | Fc1cccc(N2CCC[C@@H](Nc3ccnc(N4CCOCC4)c3)C2)c1 [I-18] | > 200

Row | Compound | Kd [µM]
23 | Fc1cccc(N2CCC[C@@H](Nc3cncc(N4CCOCC4)c3)C2)c1 [I-19] | 10 to 100
24 | Fc1cccc(N2CCC[C@@H](Nc3cc(N4CCOCC4)cnn3)C2)c1 [I-20] | > 200
25 | O=C(Nc1ccc(F)c(Cl)c1)C1CCN(c2ccnc(-c3ccccc3)n2)CC1 [I-21] | > 200
26 | Fc1cccc(N2CCCC(Nc3nccc(N4CCOCC4)n3)C2)c1 (centres unmarked) [I-22] | > 200
27 | Fc1cccc(N2CCCC(Nc3nccc(N4CCNCC4)n3)C2)c1 (centres unmarked) [I-23] | > 200
28 | CCN1CCN(c2ccnc(NC3CCCN(c4cccc(F)c4)C3)n2)CC1 (centres unmarked) [I-24] | > 200
29 | CCCN1CCN(c2ccnc(NC3CCCN(c4cccc(F)c4)C3)n2)CC1 (centres unmarked) [I-25] | > 200
30 | CCCCN1CCN(c2ccnc(NC3CCCN(c4cccc(F)c4)C3)n2)CC1 (centres unmarked) [I-26] | > 200
31 | Fc1cccc(N2CCCC(Nc3nccc(N4CCCCC4)n3)C2)c1 (centres unmarked) [I-27] | 100 to 200
32 | COCCN1CCN(c2ccnc(NC3CCCN(c4cccc(F)c4)C3)n2)CC1 (centres unmarked) [I-28] | 10 to 100
33 | c1cnc2c(N3CCC[C@@H](Nc4nccc(N5CCOCC5)n4)C3)cccc2c1 [I-30] | 100 to 200
34 | c1cc(N2CCC[C@@H](Nc3nccc(N4CCOCC4)n3)C2)c2cnccc2c1 [I-31] | > 200
35 | c1ccc2cc(N3CCC[C@@H](Nc4nccc(N5CCOCC5)n4)C3)ccc2c1 [I-32] | > 200
36 | c1cc2cc(N3CCC[C@@H](Nc4nccc(N5CCOCC5)n4)C3)ccc2cn1 [I-33] | > 200
37 | Fc1cccc(N2CCC[C@@H](N(Cc3ccccc3)c3nccc(N4CCOCC4)n3)C2)c1 [I-34] | > 200
38 | c1ccc2c(N3CCC[C@@H](Nc4nccc(N5CCOCC5)n4)C3)ccnc2c1 [I-35] | 10 to 100
39 | c1ccc2c(N3CCC[C@@H](Nc4nccc(N5CCOCC5)n4)C3)nccc2c1 [I-36] | 10 to 100
40 | c1ccc2nc(N3CCC[C@@H](Nc4nccc(N5CCOCC5)n4)C3)ccc2c1 [I-37] | > 200
41 | CN(c1nccc(N2CCOCC2)n1)[C@@H]1CCCN(c2cccc(F)c2)C1 [I-39] | > 200
42 | COCCN(c1nccc(N2CCOCC2)n1)[C@@H]1CCCN(c2cccc(F)c2)C1 [I-40] | 100 to 200
43 | Fc1cccc(N2CCC[C@@H](N(CC3CC3)c3nccc(N4CCOCC4)n3)C2)c1 [I-41] | 100 to 200
44 | CCN(c1nccc(N2CCOCC2)n1)[C@@H]1CCCN(c2cccc(F)c2)C1 [I-42] | > 200

Row | Compound | Kd [µM]
45 | CCCN(c1nccc(N2CCOCC2)n1)[C@@H]1CCCN(c2cccc(F)c2)C1 [I-44] | > 200
46 | c1cnc2cc(N3CCC[C@@H](Nc4nccc(N5CCOCC5)n4)C3)ccc2c1 [I-45] | 10 to 100
47 | c1ccc2ncc(N3CCC[C@@H](Nc4nccc(N5CCOCC5)n4)C3)cc2c1 [I-46] | > 200
48 | c1ccc2cc(N3CCC[C@@H](Nc4nccc(N5CCOCC5)n4)C3)ncc2c1 [I-47] | 100 to 200
49 | Fc1cccc(N2CCC[C@@H](n3ccc4c(N5CCOCC5)ccnc43)C2)c1 [I-49] | 100 to 200
50 | Fc1cccc(N2CCC[C@@H](n3cnc4c(N5CCOCC5)ccnc43)C2)c1 [I-50] | > 200
51 | Fc1cccc(N2CCC[C@@H](n3cnc4c(N5CCOCC5)ncnc43)C2)c1 [I-51] | > 200
52 | c1ccc2c(N3CCC[C@@H](Nc4nccc(N5CCOCC5)n4)C3)cccc2c1 [I-52] | > 200
53 | c1cc(N2CCC[C@@H](Nc3nccc(N4CCOCC4)n3)C2)c2cccnc2c1 [I-53] | 100 to 200
54 | c1ccc2c(N3CCC[C@@H](Nc4nccc(N5CCOCC5)n4)C3)cncc2c1 [I-54] | 10 to 100
55 | c1cc(N2CCC[C@@H](Nc3nccc(N4CCOCC4)n3)C2)c2ccncc2c1 [I-55] | 100 to 200
56 | c1cnc2ccc(N3CCC[C@@H](Nc4nccc(N5CCOCC5)n4)C3)cc2c1 [I-56] | > 200
57 | c1cc2ccc(N3CCC[C@@H](Nc4nccc(N5CCOCC5)n4)C3)cc2cn1 [I-57] | 10 to 100
58 | Fc1cccc(N2CCC[C@@H](n3ccc(N4CCOCC4)c4ccnc3-4)C2)c1 [I-58] | 10 to 100
59 | Fc1cccc(N2CCC[C@@H](n3ccc4c(N5CCOCC5)ncnc43)C2)c1 [I-59] | 100 to 200
60 | COCCN1CCN(c2ccnc(N[C@@H]3CCCN(c4cccc(F)c4)C3)c2)CC1 [I-61] | 10 to 100
61 | c1ccc2c(N3CCC[C@@H](Nc4cc(N5CCOCC5)ccn4)C3)nccc2c1 [I-62] | > 200
62 | c1cnc2ccnc(N3CCC[C@@H](Nc4cc(N5CCOCC5)ccn4)C3)c2c1 [I-63] | 100 to 200
63 | c1cnc2c(N3CCC[C@@H](Nc4cc(N5CCOCC5)ccn4)C3)nccc2c1 [I-64] | 100 to 200
64 | c1ccc2c(N3CCC[C@@H](Nc4cc(N5CCOCC5)ccn4)C3)nncc2c1 [I-65] | 100 to 200
65 | c1cc2c(N3CCC[C@@H](Nc4cc(N5CCOCC5)ccn4)C3)nccc2cn1 [I-66] | 100 to 200
66 | c1ccc2c(N3CCC[C@@H](Nc4cc(N5CCOCC5)ccn4)C3)ncnc2c1 [I-67] | > 200

Same assay, conditions: DCAF1-3 SPR (KD), 25 °C

Row | Compound | Kd [µM]
67 | Fc1cccc(N2CCC[C@@H](Nc3cc(N4CCOCC4)ccn3)C2)c1 [I-29, (R)—N—(I-(3-fluorophenyl)piperidin-3-yl)-4-morpholinopyridin-2-amine] | 10 to 100
68 | CCCCN(c1nccc(N2CCOCC2)n1)[C@@H]1CCCN(c2cccc(F)c2)C1 [I-43] | > 200
